The source of these data is patent US20050238733A1, “Topical anesthesia of the urinary bladder” (priority 2000, published 2005).

The nature of data set [1]: pKa and base-form fraction of local anesthetics in aqueous solution. In kind it is physicochemical. The text has this:
The pKa is the pH at which 50% of the drug in an aqueous solution will be in the base form and 50% in the ion or charged form. As the pH of the solution falls, more of the drug converts into the ion form. Since the pH scale is a logarithmic scale, these changes are quite marked over a small pH range.
The pKa is the pH at which 50% of the drug in solution will be in the base form and 50% in the salt form. As the pH rises above the pKa, more of the drug will dissociate and convert into the free base non-ionic form. […] Local anesthetics and their pharmacology are discussed in detail in Remington's Pharmaceutical Sciences, A. Osol, ed., Mack Pub. Co., Easton, Pa. (16th ed. 1980) and the Merck Index (11th ed., 1989).

Test in data set [2]: not given
The source holds these as a separate data set.

The next data set concerns mast cells. To be noted: low concentrations, opposite effect to inhibition; cited from earlier work.

As to `CCN(CC)CC(=O)Nc1c(C)cccc1C` [lidocaine], the “fraction of drug in the base form” value came to 0.5% in data set [1] (pH 5.8) and 5% in data set [1] (pH 6.8). Besides, the “peak blood levels of radiolabeled lidocaine” value (anesthetized rabbits, intra-vesical, pH 8.1) is recorded as 800 CPM/0.1 ml of blood. Moreover, the “tissue levels of radioactive labeled lidocaine in bladder mucosa” value (live rabbit bladder, 45 minutes in situ, pH 8.45) is “declined rapidly to almost the same as at the pH levels below 8.0”. For the same compound, the “peak tissue levels of radioactive labeled lidocaine in bladder mucosa” value (live rabbit bladder, 45 minutes in situ, pH between 8.1 and 8.25) is listed as “around 3,500,000 CPM/g of tissue”. Moreover, the “lidocaine levels compared with previously reported levels” value in data set [2] (alkalinized intravesical lidocaine, serum) is given as “ten times higher”. In addition, in data set [2] (human volunteers, 4, 5 or 6 mg/kg 5% lidocaine intravesical with 8.4% sodium bicarbonate, pH 8.0, all subjects, within the first hour), the “peak blood (serum) levels of lidocaine” value is reported as 0.5-2 ug/cc. Further, in data set [2] (human volunteers, at 30 minutes), the “mean peak concentration of lidocaine in blood” value stood at 1.06 µg/mL. In addition, the “concentration at which lidocaine causes mast cells to release their histamine content” value in the data set on mast cells was less than 1 mmol.
